The source made the active and inactive calls. The calls are words filed in the database; no cut-off is given here.
Experiments:
[1] = Inhibition of Methicillin-resistant Staphylococcus aureus COL TarO assessed as suppression of bacteriophageK-mediated cell lysis; design: species or system Staphylococcus aureus subsp. aureus COL
[2] = Binding affinity to Methicillin-resistant Staphylococcus aureus COL TarG assessed as suppression of targocil-mediated bacterial growth inhibition after 20 hrs in presence of L-638; design: species or system Staphylococcus aureus subsp. aureus COL
[3] = tested on: Staphylococcus aureus subsp. aureus COL; assay: Inhibition of Staphylococcus aureus COL TarO assessed as concentration of compound for potentiation of action of imipenem-mediated bacterial growth inhibition
[4] = tested on: Staphylococcus aureus; assay: Inhibition of Methicillin-resistant Staphylococcus aureus TarO assessed as percentage of MRSA MITC<=25 uM for 25 isolates; design: scale not given: the % may be the effect or the level left
[5] = tested on: Staphylococcus epidermidis; assay: Inhibition of Methicillin-resistant Staphylococcus epidermidis TarO assessed as percentage of MRSE MITC<=25 uM for 25 isolates; design: scale not given: the % may be the effect or the level left
[6] = Inhibition of TarA (unknown origin) at 200 uM
[7] = Inhibition of Staphylococcus aureus TarO; design: species or system Staphylococcus aureus subsp. aureus COL
[8] = Inhibition of mnaA (unknown origin) at 200 uM

Compound	EC50 [1] [µM]	EC50 [2] [µM]	MITC95 [3] [µM]	Activity [4] [%]	Activity [5] [%]	inhibition [6]	IC50 [7] [µM]	inhibition [8]
CC(C)(C)OC(=O)N1CCC(c2nc3ccccc3n2CCC(=O)N[C@H]2CC3CC[C@@]2(C)C3(C)C)CC1	162	58.7	9.4	–	–	–	–	–
CCN(C(=O)CCn1c(C2CCCCC2)nc2ccccc21)C1CCCCCC1	200	200	4.7	–	–	–	–	–
CCN(C(=O)CCn1c(N2CCCCC2)nc2ccccc21)C1CCCCC1	> 200	7	4.7	–	–	–	–	–
CCN(C(=O)CCn1c2cccc(C)c2nc1[C@H]1CC[C@H](CC)CC1)C1CCCCC1	0.9	0.8	0.1	68	92	–	–	–
CC1(C)[C@@H]2CC[C@@]1(C)[C@H](NC(=O)CCn1c(C3CCCCC3)nc3ccccc31)C2	7.9	2.4	1.6	–	–	inactive	0.4	inactive
CCN(C(=O)CCn1c(C2CCCCC2)nc2ccccc21)C1CCCC1	200	29.7	12.5	–	–	–	–	–
CCN(C(=O)CCn1c2cccc(Br)c2nc1[C@H]1CC[C@H](CC)CC1)C1CCCCC1	3.4	1.3	0.3	68	83	–	–	–
CCC1CCC(c2nc3ccccc3n2CCC(=O)N(CC)C2CCCCC2)CC1 (stereo not given)	0.22	0.24	0.03	–	–	–	–	–
CCN(C(=O)CCn1c(C2CCCCC2)nc2ccccc21)c1ccccc1	200	200	50	–	–	–	–	–
CC(=O)N1CCC(c2nc3ccccc3n2CCC(=O)N[C@H]2CC3CC[C@@]2(C)C3(C)C)CC1	> 200	> 200	> 200	–	–	–	–	–
CCN1CCC(c2nc3ccccc3n2CCC(=O)N[C@H]2CC3CC[C@@]2(C)C3(C)C)CC1	> 200	> 200	> 200	–	–	–	–	–
CN(C(=O)CCn1c(C2CCCCC2)nc2ccccc21)C1CCCCC1	25	11.4	4.7	–	–	–	–	–
CCN(C(=O)CCn1c(C2CCC(C(C)(C)C)CC2)nc2ccccc21)C1CCCCC1 (stereo not given)	0.25	0.05	0.015	–	–	–	–	–
CCN(C(=O)CCn1c(N2CCC(C)CC2)nc2ccccc21)C1CCCCC1	3.8	0.91	1.3	–	–	–	–	–
CCN(C(=O)CCn1c(C2CCCCC2)nc2ccccc21)C1CCCCC1	10.1	6.2	1.9	–	–	–	–	–
CCCN(C(=O)CCn1c(C2CCCCC2)nc2ccccc21)C1CCCCC1	200	7.8	6.2	–	–	–	–	–
O=C(CCn1c(C2CCCCC2)nc2ccccc21)NC1CCCCC1	200	138	25	–	–	–	–	–
CCN(C(=O)CCn1c(N2CCC(C(C)(C)C)CC2)nc2ccccc21)C1CCCCC1	0.25	0.13	0.016	76	29	–	–	–
CCC1CCN(c2nc3ccccc3n2CCC(=O)N(CC)C2CCCCC2)CC1	0.39	0.22	0.1	–	–	–	–	–
CC1(C)C2CC[C@]1(C)[C@@H](NC(=O)CCn1c(C3CCNCC3)nc3ccccc31)C2	> 200	> 200	> 200	–	–	–	–	–
CC1(C)C2CC[C@]1(C)[C@@H](NC(=O)CCn1c(C3CCN(S(C)(=O)=O)CC3)nc3ccccc31)C2	> 200	> 200	> 200	–	–	–	–	–
CCN(C(=O)CCn1c2cc(Br)ccc2nc1[C@H]1CC[C@H](CC)CC1)C1CCCCC1	0.24	0.33	0.031	68	42	–	–	–
CC1(C)[C@@H]2CC[C@@]1(C)[C@@H](NC(=O)CCn1c(C3CCCCC3)nc3ccccc31)C2	178	57.7	16.7	–	–	–	–	–
CCN(C(=O)CCn1c2ccc(Br)cc2nc1[C@H]1CC[C@H](CC)CC1)C1CCCCC1	0.027	0.015	0.004	80	46	–	–	–

— ChEMBL document CHEMBL4425162, “Discovery of potent wall teichoic acid early stage inhibitors” (Bioorg Med Chem Lett, 2016)
